Laboratory results reported in article PMC9029089, “1,5-Disubstituted Acylated 2-Amino-4,5-dihydroimidazoles as a New Class of Retinoic Acid Receptor–Related Orphan Receptor (ROR) Inhibitors” (International Journal of Molecular Sciences, 2022).
Read-outs that look alike come from different tables or passages of the source.

What was measured:
Type in all cases: cell-based
RORγ [1] = molecular target: T1, RORγ (Mus musculus, UniProt P51450); test: Gal4-RORγ-LBD UAS-luciferase reporter assay in TRex-CHO-K1 cells (doxycycline-stimulated); settings: for IC50: individual controls of library 1295, second confirmatory dose response, Figure 2
T1 construct: mRORγ (Pro-261-end); expressed in transfected cells
T1 sequence (P51450 261-516 limits assumed): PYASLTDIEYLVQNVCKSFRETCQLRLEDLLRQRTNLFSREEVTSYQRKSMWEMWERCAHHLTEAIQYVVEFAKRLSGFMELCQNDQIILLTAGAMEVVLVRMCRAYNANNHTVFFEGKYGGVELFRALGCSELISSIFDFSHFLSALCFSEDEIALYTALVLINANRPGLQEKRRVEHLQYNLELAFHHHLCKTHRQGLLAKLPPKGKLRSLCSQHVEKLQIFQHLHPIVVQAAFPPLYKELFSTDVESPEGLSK
Text: (§1) The Gal4-DBD-ROR-LBD fusion proteins were subcloned in the pcDNA4/TO expression vector (Thermo Scientific) and transfected into TRex-CHO-K1 cells (Thermo Scientific) for tetracycline-controlled expression of the corresponding ROR proteins. Transfected cells were selected with hygromycin and Zeocin and individual clones for each of the Gal4-RORγ, Gal4-RORα, and Gal4-RORβ cell lines were isolated using a standard serial dilution protocol. Clones with the highest doxycycline-dependent stimulation of luciferase activity were selected for all functional experiments.
(§2) For screening FIU libraries, cells were resuspended in Ham’s F-12 assay medium containing 2% charcoal-treated FBS and no selection drugs. […] Cells were allowed to attach for 2 h, followed by compound treatment and stimulation with 20 ng/mL doxycycline for an additional 16–20 h. Appropriate solvent controls, negative controls with no doxycycline, and blanks with no cells were included in every plate. Prior to measuring luciferase activity, 6 µL of 0.15 mg/mL resazurin (Cayman Chemical) in PBS were added and cells were incubated for 1 h at 37 °C. Fluorescence intensity was detected at 545 nm excitation/590 nm emission using a CLARIOstar reader (BMGLabtech) as a measure of cell viability, to identify any potential cytotoxic effect of test compounds and mixtures.
(§3) Luminescence was normalized by the fluorescence intensity and the percentage of inhibition was calculated with respect to control cells stimulated with doxycycline in the presence of solvent control (0.1% DMF). All primary screens with individual compounds were performed in triplicate with a final concentration of 5 µg/mL. […] IC50 values were calculated using GraphPrism (GraphPad software).

RORβ = molecular target: T2, RORβ (Rattus norvegicus, UniProt P45446); test: Gal4-RORβ-LBD UAS-luciferase reporter assay in TRex-CHO-K1 cells (doxycycline-stimulated); settings: IC50 (μM) (N=4) RORβ, individual controls of library 1295, second confirmatory dose response, Figure 2
T2 construct: rRORβ (Pro 205-end); expressed in transfected cells
T2 sequence (P45446 205-459 isoform P45446-1): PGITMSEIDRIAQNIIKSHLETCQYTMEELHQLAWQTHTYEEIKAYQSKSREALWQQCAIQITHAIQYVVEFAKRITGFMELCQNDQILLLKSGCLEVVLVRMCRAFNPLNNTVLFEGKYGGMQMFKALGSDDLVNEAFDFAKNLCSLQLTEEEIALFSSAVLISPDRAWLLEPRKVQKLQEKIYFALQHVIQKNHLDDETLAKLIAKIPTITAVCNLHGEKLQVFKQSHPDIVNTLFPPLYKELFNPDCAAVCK
Text: To investigate the transcriptional activity of all three RORs, we generated stable cell lines expressing an UAS-driven luciferase reporter together with the corresponding Gal4-DNA binding domain fused to the ligand binding domains (LBDs) of mRORγ (Pro-261-end), hRORα (Pro-211-end), or rRORβ (Pro 205-end). The Gal4-DBD-ROR-LBD fusion proteins were subcloned in the pcDNA4/TO expression vector (Thermo Scientific) and transfected into TRex-CHO-K1 cells (Thermo Scientific) for tetracycline-controlled expression of the corresponding ROR proteins. Transfected cells were selected with hygromycin and Zeocin and individual clones for each of the Gal4-RORγ, Gal4-RORα, and Gal4-RORβ cell lines were isolated using a standard serial dilution protocol. Clones with the highest doxycycline-dependent stimulation of luciferase activity were selected for all functional experiments. All cell lines were maintained in complete Ham’s F12 medium containing 10% fetal bovine serum (FBS), 10 µg/mL blasticidine, 100 µg/mL hygromycin, and 100 µg/mL Zeocin and were used within 2 months of culture without any loss of doxycycline-dependent stimulation of luciferase activity.
For screening FIU libraries, cells were resuspended in Ham’s F-12 assay medium containing 2% charcoal-treated FBS and no selection drugs. Ten thousand cells per well were seeded in 30 µL of assay medium in 384 white plates with clear bottom (Greiner). Cells were allowed to attach for 2 h, followed by compound treatment and stimulation with 20 ng/mL doxycycline for an additional 16–20 h. Appropriate solvent controls, negative controls with no doxycycline, and blanks with no cells were included in every plate. Prior to measuring luciferase activity, 6 µL of 0.15 mg/mL resazurin (Cayman Chemical) in PBS were added and cells were incubated for 1 h at 37 °C. Fluorescence intensity was detected at 545 nm excitation/590 nm emission using a CLARIOstar reader (BMGLabtech) as a measure of cell viability, to identify any potential cytotoxic effect of test compounds and mixtures. Following the resazurin assay, the medium was removed and 20 µL of BriteLite-Plus luciferase reagent (Perking Elmer) were added; luminescence was measured in a CLARIOstar reader using a 384 aperture spoon and a 0.1 sec measuring time interval.
as §3

RORα = molecular target: T3, RORα (Homo sapiens, UniProt P35398); test: Gal4-RORα-LBD UAS-luciferase reporter assay in TRex-CHO-K1 cells (doxycycline-stimulated); settings: individual controls of library 1295, second confirmatory dose response, Figure 2
T3 construct: hRORα (Pro-211-end); expressed in transfected cells
T3 sequence (P35398 266-523): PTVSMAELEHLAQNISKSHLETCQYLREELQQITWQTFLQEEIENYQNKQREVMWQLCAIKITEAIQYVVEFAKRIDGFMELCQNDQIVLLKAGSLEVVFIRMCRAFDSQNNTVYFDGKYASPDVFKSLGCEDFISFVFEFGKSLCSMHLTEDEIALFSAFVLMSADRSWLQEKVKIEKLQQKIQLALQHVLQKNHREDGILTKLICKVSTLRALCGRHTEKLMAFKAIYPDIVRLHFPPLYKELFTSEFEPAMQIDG
Text: as §1, §2, §3

RORγ [2] = molecular target: T1, RORγ; test: Gal4-RORγ-LBD UAS-luciferase reporter assay in TRex-CHO-K1 cells (doxycycline-stimulated); settings: library 2520, RORγ cells
[3] = T-REx-CHO-K1, read-out: % Inhibition RORγ 5 μg/ml
[4] = T-REx-CHO-K1, individual controls 1295.201-307, 5 μg/ml, triplicate, read-out: % Inhibition RORγ 5 μg/ml

SMILES | IC50 (RORγ [1]; IC50 (μM) (N=4) RORγ) [µM] | inhibition at 5 µg/mL (RORγ [1]; [3]) [%] | IC50 (RORβ) [µM] | IC50 (RORα; IC50 (μM) (N=4) RORα) [µM] | inhibition at 5 µg/mL (RORγ [1]; [4]) [%] | IC50 (RORγ [1]) [µM] | % Inhibition at 4 μM (N=3) (RORγ [2]) [%] | other results
O=C(Cc1ccccc1)NC1=NC[C@H](Cc2ccccc2)N1CCC1CC2CCC1C2 (stereo partly shown) [1295.270] | 5.9 ± 3.3 | 84.6 | 9.3 ± 4.9 | 9 ± 0.2 |  |  |  | 
O=C(NC1=NC[C@H](Cc2ccccc2)N1CCc1ccccc1)C1(c2ccccc2)CC1 [1295.272] |  |  | 14.2 ± 3.6 |  | 96 | 8 ± 1 |  | IC50 (RORα): 9.8 ± 0.5 µM
CC(CC(=O)NC1=NC[C@H](Cc2ccccc2)N1CCc1ccccc1)c1ccccc1 (stereo partly shown) [1295.274] | 4.8 | 105 | 6.7 ± 0.3 | 7.4 ± 0.2 |  |  |  | selectivity towards RORγ over RORα and RORβ (RORγ [1]; from IC50 values in reporter cells): slightly more selective than RORα/β
O=C(CCc1ccccc1)NC1=NC[C@H](Cc2ccccc2)N1CCc1ccccc1 [1295.289] |  |  | 12.8 ± 2.7 | 12.7 ± 0.4 | 83.1 | 7 ± 2.3 |  | 
CC(C)(C)C(=O)NC1=NC[C@H](Cc2ccccc2)N1CCc1ccccc1 [1295.298] |  |  | 10.8 ± 0.4 |  | 94.7 | 10 ± 1.5 |  | IC50 (RORα): 9.6 ± 0.3 µM
O=C(CC1CCCCC1)NC1=NC[C@H](Cc2ccccc2)N1CCc1ccccc1 [1295.299] | 8.4 ± 1.5 | 89.6 | 12.7 ± 4.2 | 14.1 ± 1.6 |  |  |  | 
O=C(CCCC1CCCCC1)NC1=NC[C@H](Cc2ccccc2)N1CCc1ccccc1 [1295.300] |  |  | 12.3 ± 0.8 | 10.2 ± 0.4 | 82.8 | 8.7 ± 2 |  | 
O=C(CCC1CCCCC1)NC1=NC[C@H](Cc2ccccc2)N1CCc1ccccc1 [1295.305] |  |  | 10.4 ± 0.7 | 10.3 ± 3.7 | 82.8 | 6.6 ± 1.4 |  | 
CC1CCC(C(=O)NC2=NC[C@H](Cc3ccccc3)N2CCc2ccccc2)CC1 (stereo partly shown) [1295.306] | 9.5 ± 2.6 | 97.8 | 9.4 ± 0.6 | 9.7 ± 1.6 |  |  |  | 
O=C(CC1CC2CCC1C2)NC1=NC[C@H](Cc2ccccc2)N1CCc1ccccc1 (stereo partly shown) [1295.307] | 5.8 ± 0.4 | 101 | 7.6 ± 0.3 | 8.9 ± 0.4 |  |  |  | 
COc1ccc(CC(=O)NC2=NC[C@H](Cc3ccc4ccccc4c3)N2CC2CCCCC2)cc1 [2520.06] |  |  |  |  |  |  | -56.4 | 
CC(C)C(=O)NC1=NC[C@H](Cc2ccc3ccccc3c2)N1CC1CCCCC1 [2520.12] |  |  |  |  |  |  | 30.4 | 
CC[C@H](C)[C@H]1CN=C(NC(=O)Cc2ccc(OC)cc2)N1CC1CCCCC1 [2520.18] |  |  |  |  |  |  | 26.2 | 
COc1ccc(CC(=O)NC2=NC[C@H](Cc3ccccc3)N2CC2CCCCC2)cc1 [2520.30] |  |  |  |  |  |  | -4.8 | 
CC(C)C(=O)NC1=NC[C@H](Cc2ccccc2)N1CC1CCCCC1 [2520.36] |  |  |  |  |  |  | -5.4 | 
